Measurements published in ChEMBL document CHEMBL5500426, “Directly Suppressing MYC Function with Novel Alkynyl-Substituted Phenylpyrazole Derivatives that Induce Protein Degradation and Perturb MYC/MAX Interaction” (J Med Chem, 2024).
The source made the active and inactive calls. The calls are words filed in the database; no cut-off is given here.

Columns and labels:
[1] = tested on: PC-3; experiment: Antiproliferative activity against human PC-3 cells assessed as inhibition of cell growth incubated for 72 hrs by MTT assay; format: functional, cell-based; settings: PC-3, 72 h
[2] = Cytotoxicity against human HUVEC cells assessed as inhibition of cell growth incubated for 72 hrs by MTT assay; format: toxicity, cell-based
[3] = tested on: MDA-MB-231; experiment: Antiproliferative activity against human MDA-MB-231 cells assessed as inhibition of cell growth incubated for 72 hrs by MTT assay; format: functional, cell-based; settings: MDA-MB-231, 72 h
[4] = tested on: MDA-MB-468; experiment: Antiproliferative activity against human MDA-MB-468 cells assessed as inhibition of cell growth incubated for 72 hrs by MTT assay; format: functional, cell-based; settings: MDA-MB-468, 72 h
[5] = tested on: HCT-116; experiment: Antiproliferative activity against human HCT-116 cells assessed as inhibition of cell growth incubated for 72 hrs by MTT assay; format: functional, cell-based; settings: HCT-116, 72 h
[6] = tested on: SGC-7901; experiment: Antiproliferative activity against human SGC-7901 cells assessed as inhibition of cell growth incubated for 72 hrs by MTT assay; format: functional, cell-based; settings: SGC-7901, 72 h
[7] = tested on: SK-OV-3; experiment: Antiproliferative activity against human SK-OV-3 cells assessed as inhibition of cell growth incubated for 72 hrs by MTT assay; format: functional, cell-based; settings: SK-OV-3, 72 h
[8] = tested on: MV4-11; experiment: Antiproliferative activity against human MV4-11 cells assessed as inhibition of cell growth incubated for 72 hrs by MTT assay; format: functional, cell-based; settings: MV4-11, 72 h
[9] = Half life in Sprague-Dawley rat at 10 mg/kg,ip administration by LC-MS/MS analysis; format: ADME, organism-based; settings: in vivo
[10] = AUC (0 to t) in Sprague-Dawley rat at 10 mg/kg,ip administration by LC-MS/MS analysis; format: ADME, organism-based; settings: in vivo
[11] = Volume of distribution at steady state in Sprague-Dawley rat at 2 mg/kg,iv administration by LC-MS/MS analysis; format: ADME, organism-based; settings: in vivo, read-out: Vdss
[12] = Volume of distribution at steady state in Sprague-Dawley rat at 10 mg/kg,ip administration by LC-MS/MS analysis; format: ADME, organism-based; settings: in vivo
[13] = Bioavailability in Sprague-Dawley rat at 2 mg/kg,iv administration by LC-MS/MS analysis; format: ADME, organism-based; settings: in vivo
[14] = target: Myc proto-oncogene protein (Homo sapiens) (UniProt P01106); experiment: Inhibition of MYC in human PC-3 cells assessed as downregulation of MYC expression incubated for 24 hrs by Western blotting analysis; format: cell-based
Sequence of Myc proto-oncogene protein (Homo sapiens) (P01106 whole entry): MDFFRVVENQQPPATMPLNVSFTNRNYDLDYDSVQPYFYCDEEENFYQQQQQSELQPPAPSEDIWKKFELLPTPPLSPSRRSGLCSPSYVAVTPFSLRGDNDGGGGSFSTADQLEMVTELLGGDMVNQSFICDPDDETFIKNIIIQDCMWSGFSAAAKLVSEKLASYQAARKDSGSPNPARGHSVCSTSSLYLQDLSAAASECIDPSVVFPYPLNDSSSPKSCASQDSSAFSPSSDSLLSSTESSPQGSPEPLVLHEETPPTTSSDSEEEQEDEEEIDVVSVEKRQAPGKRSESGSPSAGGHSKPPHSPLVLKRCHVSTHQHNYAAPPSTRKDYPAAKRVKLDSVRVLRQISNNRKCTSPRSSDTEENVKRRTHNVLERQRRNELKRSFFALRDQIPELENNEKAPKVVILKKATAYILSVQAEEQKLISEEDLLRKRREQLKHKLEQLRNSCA

[15] = target: Myc proto-oncogene protein (Homo sapiens) (UniProt P01106); experiment: Inhibition of MYC in human PC-3 cells assessed as downregulation of MYC expression at 1 uM incubated for 24 hrs by Western blotting analysis relative to control; format: cell-based
[16] = target: Myc proto-oncogene protein (Homo sapiens) (UniProt P01106); experiment: Inhibition of MYC in human PC-3 cells assessed as downregulation of MYC expression at 10 uM incubated for 24 hrs in presence of proteasome inhibitor MG132 by Western blotting analysis; format: cell-based
[17] = target: T1, c-Myc/c-Max (Homo sapiens) (UniProt P01106+P61244); experiment: Inhibition of MYC/MAX protein-protein interaction in human PC-3 cells at 1 uM incubated for 30 mins; format: cell-based
T1 sequence (P01106 whole entry): as above
T1 sequence (P61244 2-160 partner limits assumed): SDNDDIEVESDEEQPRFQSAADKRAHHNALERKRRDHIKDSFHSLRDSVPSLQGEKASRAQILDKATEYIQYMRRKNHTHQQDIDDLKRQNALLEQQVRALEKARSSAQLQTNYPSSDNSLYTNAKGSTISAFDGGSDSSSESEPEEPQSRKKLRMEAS

[18] = target: Myc proto-oncogene protein (Homo sapiens) (UniProt P01106); experiment: Binding affinity to MYC in human PC-3 cells assessed as decrease in melting temperature at 10 uM with 37 to 52 degreeC incubated for 1 hr by CETSA based Western blotting analysis; format: cell-based
[19] = target: Protein max (Homo sapiens) (UniProt P61244); experiment: Binding affinity to MAX in human PC-3 cells assessed as effect on protein thermal stabilization at 10 uM with 37 to 58 degreeC incubated for 1 hr by CETSA based Western blotting analysis; format: cell-based
Sequence of Protein max (Homo sapiens) (P61244 whole entry): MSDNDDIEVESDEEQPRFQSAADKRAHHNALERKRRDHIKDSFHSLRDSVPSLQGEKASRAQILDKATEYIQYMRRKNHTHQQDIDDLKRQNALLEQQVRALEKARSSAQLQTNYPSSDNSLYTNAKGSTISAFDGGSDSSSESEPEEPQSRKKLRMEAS

[20] = target: T1, c-Myc/c-Max (Homo sapiens); experiment: Inhibition of MYC/MAX protein-protein interaction in human PC-3 cells at 10 uM incubated for 1 hr by Co-immunoprecipitation based immunoblotting analysis; format: cell-based
[21] = tested on: PC-3; experiment: Antitumor activity against human PC-3 cells xenografted in BALB/C mouse assessed as reduction in tumor volume at ip administrated daily for 21 consecutive days; format: functional, organism-based
[22] = tested on: PC-3; experiment: Antitumor activity against human PC-3 cells xenografted in BALB/C mouse assessed as reduction in tumor weight at ip administrated daily for 21 consecutive days; format: functional, organism-based
[23] = tested on: PC-3; experiment: Antitumor activity against human PC-3 cells xenografted in BALB/C mouse assessed as tumor growth inhibition at 50 mg/kg,ip administrated daily for 21 consecutive days relative to control; format: functional; settings: read-out: TGI
[24] = tested on: PC-3; experiment: Antitumor activity against human PC-3 cells xenografted in BALB/C mouse assessed as tumor growth inhibition at 100 mg/kg,ip administrated daily for 21 consecutive days relative to control; format: functional; settings: read-out: TGI
[25] = Toxicity in BALB/C mouse xenografted with human PC-3 cells assessed as body weight loss at 50 to 100 mg/kg,ip administrated daily for 21 consecutive days; format: organism-based; settings: in vivo, dose 50-100 mg/kg
[26] = Toxicity in BALB/C mouse xenografted with human PC-3 cells assessed as histopathological change in heart at 50 to 100 mg/kg,ip administrated daily for 21 consecutive days by hematoxylin and eosin staining based microscopic analysis; format: organism-based; settings: in vivo, dose 50-100 mg/kg
[27] = Toxicity in BALB/C mouse xenografted with human PC-3 cells assessed as histopathological change in liver at 50 to 100 mg/kg,ip administrated daily for 21 consecutive days by hematoxylin and eosin staining based microscopic analysis; format: organism-based; settings: in vivo, dose 50-100 mg/kg
[28] = Toxicity in BALB/C mouse xenografted with human PC-3 cells assessed as histopathological change in spleen at 50 to 100 mg/kg,ip administrated daily for 21 consecutive days by hematoxylin and eosin staining based microscopic analysis; format: organism-based; settings: in vivo, dose 50-100 mg/kg
[29] = tested on: Myc-CaP; experiment: Antitumor activity against mouse Myc-CaP cells implanted in FVB mouse assessed as reduction in tumor weight at ip administrated daily for 14 consecutive days; format: functional, organism-based
[30] = tested on: Myc-CaP; experiment: Antitumor activity against mouse Myc-CaP cells implanted in FVB mouse assessed as tumor growth inhibition at 10 mg/kg,ip administrated daily for 14 consecutive days relative to control; format: functional; settings: read-out: TGI
[31] = tested on: Myc-CaP; experiment: Antitumor activity against mouse Myc-CaP cells implanted in FVB mouse assessed as tumor growth inhibition at 50 mg/kg,ip administrated daily for 14 consecutive days relative to control; format: functional; settings: read-out: TGI
[32] = Toxicity in FVB mouse implanted with mouse Myc-CaP cells assessed as body weight loss at 10 to 50 mg/kg,ip administrated daily for 14 consecutive days; format: organism-based; settings: in vivo, dose 10-50 mg/kg
[33] = Toxicity in FVB mouse implanted with mouse Myc-CaP cells assessed as histopathological change in liver at 10 to 50 mg/kg,ip administrated daily for 14 consecutive days by hematoxylin and eosin staining based microscopic analysis; format: organism-based; settings: in vivo, dose 10-50 mg/kg
[34] = Toxicity in FVB mouse implanted with mouse Myc-CaP cells assessed as histopathological change in lung at 10 to 50 mg/kg,ip administrated daily for 14 consecutive days by hematoxylin and eosin staining based microscopic analysis; format: organism-based; settings: in vivo, dose 10-50 mg/kg
[35] = Toxicity in FVB mouse implanted with mouse Myc-CaP cells assessed as histopathological change in kidney at 10 to 50 mg/kg,ip administrated daily for 14 consecutive days by hematoxylin and eosin staining based microscopic analysis; format: organism-based; settings: in vivo, dose 10-50 mg/kg
[36] = tested on: Myc-CaP; experiment: Antiproliferative activity against mouse Myc-CaP cells assessed as inhibition of cell growth incubated for 72 hrs by MTT assay; format: functional, cell-based

Oc1c(-c2cc(C(F)(F)F)n[nH]2)ccc(C#CCCN2CCOCC2)c1-c1ccc(Cl)c(C(F)(F)F)c1
IC50 [1]: 1270 nM
IC50 at 72 h [2]: 16600 nM
IC50 [3]: 1350 nM
IC50 [4]: 4320 nM
IC50 [5]: 1010 nM
IC50 [6]: 1960 nM
IC50 [7]: 1250 nM
IC50 [8]: 890 nM
half-life [9]: 5.97 h
AUC(0-t) [10]: 2220 ng·h/mL
Vd [11]: 6.41 L/kg
Vdss [12]: 38.43 L/kg
bioavailability [13]: 31.7%
inhibition [14]: Dose-Dependent Effect
inhibition [15]: > 50%
inhibition [16]: inactive
inhibition [17]: Active
Activity [18]: Active
Activity [19]: inactive
inhibition [20]: Active
Activity [21]: Dose-Dependent Effect
Activity [22]: Dose-Dependent Effect
inhibition in vivo at 50 mg/kg [23]: 33%
inhibition in vivo at 100 mg/kg [24]: 79%
Activity [25]: Toxic
Activity [26]: Non-Toxic
Activity [27]: Non-Toxic
Activity [28]: Non-Toxic
Activity [29]: Dose-Dependent Effect
inhibition in vivo at 10 mg/kg [30]: 37%
inhibition in vivo at 50 mg/kg [31]: 85%
Activity [32]: Non-Toxic
Activity [33]: Non-Toxic
Activity [34]: Non-Toxic
Activity [35]: Non-Toxic
IC50 [36]: 550 nM
